Source: patent publication US8741836B2, “Polypeptides” (Novo Nordisk A/S, priority 2011, dated 2014)
Where two headings read alike, the source gives them in different places. Starred links: 1 amine or outer side, 2 acyl side, 3 side chain; linkers in the order of their positions; H or OH if unused. Positions of bridges follow the written chain, without caps; N, C: chain ends. Residues, ends and D or L forms follow the SMILES beside them. Groups on a side chain read outwards from the residue. *: point of attachment. C18 diacid = O=C(O)CCCCCCCCCCCCCCCCC(=O)*; γGlu = O=C(O)[C@H](CCC(=O)[*:2])N[*:1]; AEEA = NCCOCCOCC(=O)O

What was measured:
[1] = target: T1, rat amylin 3(a) receptor (rat calcitonin(a) receptor+rat RAMP3) (Rattus norvegicus, UniProt P32214+Q9JJ73); experiment: Assay (II)b functional assay, rat amylin receptor (cAMP FlashPlate); assay type: cell-based; conditions: Table 11
T1 construct: expressed in transfected cells; host or cells: BHK tk'ts 13 (transient, FuGENE 6)
T1 sequence (P32214 25-479 isoform P32214-2 limits assumed): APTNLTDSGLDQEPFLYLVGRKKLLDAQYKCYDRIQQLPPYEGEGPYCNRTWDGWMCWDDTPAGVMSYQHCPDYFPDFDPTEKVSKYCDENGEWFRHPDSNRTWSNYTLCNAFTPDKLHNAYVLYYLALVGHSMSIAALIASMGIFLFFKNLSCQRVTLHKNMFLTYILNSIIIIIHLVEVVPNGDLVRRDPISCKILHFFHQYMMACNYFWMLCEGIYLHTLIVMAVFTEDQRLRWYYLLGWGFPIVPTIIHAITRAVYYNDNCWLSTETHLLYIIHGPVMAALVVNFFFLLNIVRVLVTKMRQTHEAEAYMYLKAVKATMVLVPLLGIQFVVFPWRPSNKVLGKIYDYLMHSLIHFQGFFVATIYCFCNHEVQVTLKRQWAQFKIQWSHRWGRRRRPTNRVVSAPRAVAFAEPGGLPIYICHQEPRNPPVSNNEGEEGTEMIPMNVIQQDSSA
T1 sequence (Q9JJ73 24-147 partner limits assumed): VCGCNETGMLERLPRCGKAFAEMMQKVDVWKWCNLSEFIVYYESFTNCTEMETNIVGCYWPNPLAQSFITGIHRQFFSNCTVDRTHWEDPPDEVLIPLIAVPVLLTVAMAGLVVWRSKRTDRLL
Description: (§1) Assay (II)b—Rat Calcitonin and Rat Amylin Receptor Assays
(§2) Activation of calcitonin and amylin (coexpression of calcitonin receptor and receptor activity modifying proteins (RAMP)) receptors lead to increased intracellular concentrations of cAMP. In order to quantify the cAMP levels in transiently transfected cells the Adenylyl Cyclase Activation FlashPlate® Assay from Perkin Elmer was used. The basic principle of the FlashPlate® Assay is a competition between radioactive and non-radioactive cAMP generated by the cells for a fixed number of binding sites.
(§3) Construction of Rat Calcitonin(a)- and Rat Amylin 3(a)-Receptor Cells.
(§4) BHK tk'ts 13 cells were transiently transfected with either rat calcitonin (a) receptor or amylin 3 (a) receptor (rat calcitonin(a) receptor+rat RAMP3) using FuGENE® 6 (Roche), according to the manufacturers recommendations.
(§5) 24 hours after transient transfection the cells (rat calcitonin(a)- or rat amylin 3(a)-receptor cells) were added (100.000 cells/well) to the 96 well FlashPlates® with samples or standard in FlashPlate stimulation buffer with IBMX and incubated for 30 min. Detection mix was created according to manufacturers protocol and scintillation measured after 3 h of incubation on TopCounter™ (Packard).

[2] = target: T2, rat calcitonin (a) receptor (Rattus norvegicus, UniProt P32214); experiment: Assay (II)b functional assay, rat calcitonin receptor (cAMP FlashPlate); assay type: cell-based; conditions: Table 11, read-out: CTa receptor rat EC50
T2 construct: expressed in transfected cells; host or cells: BHK tk'ts 13 (transient, FuGENE 6)
T2 sequence (P32214 25-479 isoform P32214-2 limits assumed): T1 sequence (P32214 25-479 isoform P32214-2 limits assumed)
Description: as §1, §2, §3, §4, §5

[3] = Assay (IV) determination of solubility; assay type: physicochemical
Procedure: Assay (IV)—Determination of Solubility
The polypeptide was dissolved in water at −500 nmol/ml and mixed 1:1 with a series of buffers (100 mM glycylglycine pH 3.0, 100 mM glycylglycine pH 4.0, 100 mM glycylglycine pH 5.0, 100 mM bistrispropane pH 6.0, 100 mM bistrispropane pH 6.5, 100 mM bistrispropane pH 7.0, 100 mM bistrispropane pH 7.5, 100 mM bistrispropane pH 8.0). After 18 hours at room temperature the samples were centrifuged and the polypeptide concentration determined by HPLC.

EC50 [1]: 0.504 nM | EC50 [2]: 2.06 nM | solubility at 18 h ([3]; bistrispropane buffer, pH 6.5, read-out: Solubility): > 200 µM | solubility at 18 h ([3]; bistrispropane buffer, pH 7.5, read-out: Solubility pH 7.5): > 200 µM | solubility at 18 h ([3]; bistrispropane buffer, pH 6.0, read-out: Solubility): > 200 µM | solubility at 18 h ([3]; bistrispropane buffer, pH 7.0, read-out: Solubility pH 7.0): > 200 µM | solubility at 18 h ([3]; bistrispropane buffer, pH 8.0, read-out: Solubility): > 200 µM | solubility at 18 h ([3]; glycylglycine buffer, pH 3.0, read-out: Solubility): > 200 µM | solubility at 18 h ([3]; glycylglycine buffer, pH 4.0, read-out: Solubility pH 4.0): > 200 µM | solubility at 18 h ([3]; glycylglycine buffer, pH 5.0, read-out: Solubility): > 200 µM | solubility at 18 h ([3]; pH 4.0, read-out: Solubility): >200 µM | solubility at 18 h ([3]; pH 7.0, read-out: Solubility): >200 µM | solubility at 18 h ([3]; pH 7.5, read-out: Solubility): >200 µM
Structure (SMILES): CC[C@H](C)[C@H](NC(=O)[C@@H]1CCCN1C(=O)CNC(=O)[C@H](Cc1ccccc1)NC(=O)[C@H](CC(N)=O)NC(=O)[C@H](CCCCNC(=O)COCCOCCNC(=O)COCCOCCNC(=O)CC[C@H](NC(=O)CCCCCCCCCCCCCCCCC(=O)O)C(=O)O)NC(=O)[C@H](CO)NC(=O)[C@H](CO)NC(=O)[C@H](Cc1c[nH]cn1)NC(=O)[C@H](Cc1c[nH]cn1)NC(=O)[C@H](CC(C)C)NC(=O)[C@H](Cc1ccccc1)NC(=O)[C@H](CCC(=O)O)NC(=O)[C@H](C)NC(=O)[C@H](CC(C)C)NC(=O)[C@H](CCCNC(=N)N)NC(=O)[C@H](CCC(N)=O)NC(=O)[C@@H](NC(=O)[C@H](C)NC(=O)[C@@H]1CSSC[C@H](NC(=O)[C@@H](N)CCCCN)C(=O)N[C@@H](CC(N)=O)C(=O)N[C@@H]([C@@H](C)O)C(=O)N[C@@H](C)C(=O)N[C@@H]([C@@H](C)O)C(=O)N1)[C@@H](C)O)C(=O)N[C@@H](CC(C)C)C(=O)N1CCC[C@H]1C(=O)N1CCC[C@H]1C(=O)N[C@H](C(=O)N[C@@H](CC(N)=O)C(=O)N[C@H](C(=O)NCC(=O)N[C@@H](CO)C(=O)N[C@@H](CCC(=O)O)C(=O)N[C@H](C(=O)N[C@@H](Cc1ccc(O)cc1)C(N)=O)[C@@H](C)O)C(C)C)[C@@H](C)O [Example 74, N-epsilon21-[2-(2-{2-[2-(2-{2-[(S)-4-Carboxy-4-(17-carboxyheptadecanoylamino)butyrylamino]ethoxy}ethoxy)acetylamino]ethoxy}ethoxy)acetyl]-[Glu14,His17,Lys21,Glu35]-pramlintide] (H-KCNTATCATQRLAEFLHHSSK([AEEA-AEEA-γGlu-C18 diacid])NFGPILPPTNVGSETY-NH2; disulfide 2-7 (inferred); N-terminus and C-terminus assumed)
